From patent US20040058852A1, “Use of gap-junction blockers in neurodegenerative disease” (priority 2002, published 2004)
Entries after “also recorded” stand apart in the source; their conditions may differ.

Assays:
[1] = test system: secondary edema following focal hypoxic-ischemic insult; conditions: experimental animal models; cited from earlier work
newborn infants = newborn infants or heart surgery using deep hypothermic circulatory arrest; cited from earlier work
[2] = test system: brain damage in immature fetuses and newborn infants; conditions: randomized double-blind trials; cited from earlier work
[3] = intraperitoneal and subcutaneous injections; cited from earlier work
[4] = test system: gap junction coupling in hippocampal slice cultures; assay: Fluorescence recovery after photobleaching (FRAP) in CA1 fields of hippocampal slice cultures; assay type: cell-based, Sprague-Dawley rat; design: dose or concentration left out as unconfirmed
Procedure: Fluorescence recovery in CA1 fields of hippocampal slice cultures was evaluated as in Wade et al., 1986. Hippocampal slice cultures were loaded by 45 min application of carboxyfluorescein diacetate (30 μM). CA1 fields of view were photobleached for 2 min using the 488 nm laser line of a confocal microscope (Nikon RCM 8000) and images acquired at low power at 1 min intervals thereafter. Quantitative image analysis was performed using Polygon-Star software (Nikon).

[5] = test system: rat pups subjected to intrauterine hypoxic-ischemia; assay: Intrauterine hypoxic-ischemia (transient global anoxia during C-section delivery): survival, growth, histopathology; assay type: in vivo; conditions: for survived reperfusion / mortality: 75 mg/Kg
Procedure: Sprague Dawley fetuses were subjected to transient global anoxia during C-section delivery (Bjelke et al., 1991; Brake et al., 1997). Pregnant rats at term (21 days gestation) were decapitated, the abdomen incised, and the uterus was quickly isolated from its blood supply and surrounding fat tissue and connective tissue. Acute anoxia was induced by immersing the intact uterus containing the fetuses into 37° C. saline for 12.5-15 min. […] Blood gases and pH Samples were analyzed for blood gases and pH on a blood gas monitor (RapidLab 855, Bayer,UK).
Animals were deeply anesthetized with ketalar and perfused via a transcardiac site after which brains were removed, rinsed with saline and fixed in formaldehyde buffered to pH 7.35. Brains were cut into sagittal sections, sliced in 2 mm cross-sections (Braintree Scientific Inc, Mass.), dehydrated with a tissue processor (TP1050, Leica Instruments, Germany), embedded in paraffin, sectioned with a Leica freezing microtome, and stained with haematoxylon-eosin.
Groups were compared by ANOVA or Student's t-test, as appropriate, with group size pre-selected based on P<0.05 significance criterion.

[6] = test system: synaptic transmission in CA1 stratum radiatum of hippocampal slice cultures; assay: Schaffer collateral-evoked excitatory postsynaptic potentials in slice cultures 24 hr post-HI; assay type: cell-based, Sprague-Dawley rat; conditions: 75 μM, 45 min HI
Procedure: Organotypic hippocampal slice cultures were prepared from 9- to 12-day old Sprague-Dawley rat pups (Charles River, Wilmington, Del.) of both sexes (Stoppini et al., 1991). Rats were decapitated under deep ketamine anesthesia, the hippocampi rapidly dissected out and placed immediately into ice-cold dissection medium containing: 3.5 mM KCl, 0.5 mM NaH2PO4, 10 mM MgSO4, 5 mM NaHCO3, 118 mM n-methyl-D-glucosamina, 1.1 mM KH2PO4, 10 mM HEPES, 20 mM D-glucose, pH 7.35, gassed with 95% O2/5% CO2. Transverse slices of hippocampus plus entorhinal cortex were cut using a spring-loaded grid of 20 μm diameter wires spaced 400 μm apart. […]
Slice cultures were placed in an interface recording chamber between artificial cerebrospinal fluid (ACSF; perfusion rate 3 ml/min) and a humidified atmosphere of 95% O2/5% CO2. […] Extracellular excitatory postsynaptic potentials (EPSPs) were recorded (2 M NaCl-filled electrodes) in stratum radiatum and elicited by bipolar Schaffer collateral stimulation (intensities 20-200 μA), recorded using an Axopatch 200A amplifier in current-clamp mode.

[7] = test system: neonatal rats with seizures following intrauterine HI insults; assay: Behavioral and electrographic (EEG) seizures after intrauterine hypoxic-ischemia; assay type: in vivo, rat; design: ischemic pups that died: dose or concentration left out as unconfirmed; conditions: for behavioral seizures following HI insults: i.p. at the onset of motor seizures; for electrographic seizures (EEG epileptiform activity): i.p., EEG 40 min after administration, one pup
Source text: Rat pups were delivered by C-section. One group was subjected to intra-uterine hypoxic-ischemia, the control group was also delivered by caesarian-section but not subjected to a period of hypoxic-ischemia.
Surviving animals in all groups were examined neuropathologically at 21 days following delivery (P21).

caspase-3 = assay: Western blot of activated caspase-3 in whole brain 24 hr after intrauterine HI; assay type: in vivo, rat; conditions: for HI-induced increase of activated caspase-3 in whole brain: 75 mg/kg i.p. immediately after HI, 24 hr
Procedure: Protein was extracted from whole-brain 24 hr following HI and concentration determined with a BCA Protein Assay Kit (Pierce, Rockford, Ill.). Twenty-five μg protein/sample was applied per lane and separated by electrophoresis in 10% or 10-20% SDS-polyacrylamide gels (BioRad, Hercules, Calif.) and transferred to nitrocellulose membranes (Schleicher and Schuell, Keene, N.H.). Membranes were blotted […] with cleaved caspase-3 ([…]) antibody (1:700) overnight at 4° C., and then incubated in horseradish peroxidase-conjugated anti-rabbit IgG 1:1500. […] As an internal control, glyceraldehyde-3-phosphate dehydrogenase (GAPDH) was blotted with horseradish peroxidase-conjugated goat antimouse IgG at a concentration of 1:4000. Densitometriy of chemiluminescent bands was quantified using Scion Image densitometer software (NIH), and band densities normalized to GAPDH density in the same gel.

[8] = test system: CA1 pyramidal neurons in organotypic hippocampal slice cultures; assay type: cell-based, Sprague-Dawley rat
Procedure: Organotypic hippocampal slice cultures were prepared from 9- to 12-day old Sprague-Dawley rat pups (Charles River, Wilmington, Del.) of both sexes (Stoppini et al., 1991). Rats were decapitated under deep ketamine anesthesia, the hippocampi rapidly dissected out and placed immediately into ice-cold dissection medium containing: 3.5 mM KCl, 0.5 mM NaH2PO4, 10 mM MgSO4, 5 mM NaHCO3, 118 mM n-methyl-D-glucosamina, 1.1 mM KH2PO4, 10 mM HEPES, 20 mM D-glucose, pH 7.35, gassed with 95% O2/5% CO2. Transverse slices of hippocampus plus entorhinal cortex were cut using a spring-loaded grid of 20 μm diameter wires spaced 400 μm apart. Slices were immediately transferred into dissection medium, separated and placed on semi-permeable membrane tissue culture inserts (Millipore Corporation, Bedford, Mass.) in a 6-well plate, each well containing 1 ml of culture medium (50% Minimum Essential Medium, 25% Hank's balanced salt solution, 25% heat-inactivated horse serum, 13 mM HEPES, 2.5 mg/ml glucose). Cultures were maintained at 35° C. in a humidified 5% CO2 incubator and medium was changed every 2-3 days.
After 6-10 days in culture, hippocampal slice cultures were exposed to hypoxia-ischemia (HI) by transient oxygen and glucose deprivation. Slices were transferred into another six-well plate containing 1 ml of Ringermannitol glucose-free medium per well, containing 1.25 mM CaCl2, 0.9 mM MgSO4, 5.4 mM KCl, 0.44 mM KH2PO4, 137 mM NaCl, 4.2 mM NaHCO3, 0.35 mM NaH2PO4, 16.7 mM HEPES, and 27.5 mM mannitol, and placed in a hypoxic box continuously gassed with 95% N2/5% CO2 for 45 min. They were then returned to normal medium with carbon dioxide until measurement of neuronal death.
Carbenoxolone (disodium salt) was purchased from Sigma (St. Louis, Mo.), propidium iodide and carboxyfluorescein diacetate from Molecular Probes (Eugene, Oreg.). Cleaved caspase-3 antibody was purchased from Cell Signaling (Beverly, Mass.).
Media containing 1 μM PI was applied for 10 min to slices and PI-labeled dead cells imaged using […] filters. IPLab (Signal Analytics Corp.) and NIH image analysis programs were used to quantitate total fluorescence intensity for equal regions of interest within the CA1 pyramidal cell body layer (stratum pyramidale).

infarcts after stroke = conditions: applied before the induction of stroke; cited from earlier work
[9] = i.p. to newborn rats at least 15 min after HI

Oc1ncnc2[nH]ncc12 [Allopurinol]
severity of secondary edema [1]: reduced | outcome in clinical trials (newborn infants): has not been successful

O=S(=O)([O-])[O-].[Mg+2] [magnesium sulfate]
protective effect against brain damage [2]: did not provide a protective effect

CC1(C)[C@@H](OC(=O)CCC(=O)O)CC[C@]2(C)[C@H]3C(=O)C=C4[C@@H]5C[C@@](C)(C(=O)O)CC[C@]5(C)CC[C@@]4(C)[C@]3(C)CC[C@@H]12 [carbenoxolone, Carbenoxolone]
crossing of normoxic foeto-placental and adult blood-brain barriers [3]: has been shown to cross | gap junction coupling in slice cultures [4]: effective at reducing gap junction coupling | survived reperfusion ([5]; 4 hrs): 76.5±9% | mortality ([5]; 4 hrs of reoxygenation/recirculation after perinatal HI): 23.5% | survived reperfusion ([5]; 24 hrs): 73±9.5% | mortality ([5]; 24 hrs after perinatal HI): 27% | survived reperfusion ([5]; 48 hrs): 70±12.5% | mortality ([5]; 48 hrs after perinatal HI): 30% | cerebellar damage ([5]; 75 mg/kg i.p. after intrauterine HI): preventing cerebellar damage | extent of histopathological damage in the hippocampus and neocortex ([5]; 75 mg/kg i.p. after intrauterine HI, n=5): dramatically reduced | long-term development assessed by size ([5]; 75 mg/kg immediately after intrauterine HI, compared to HI alone (FIG. 3d)): improves | survival rate ([5]; 21 days post-HI): 70±12% | crossing of the blood-brain barrier [5, 9]: cross the blood-brain barrier in sufficient time and concentration | long-term damage induced by HI [5, 9]: markedly reduce | body weight ([5]; postnatal day 21, HI rats): 29.2 ± 3 g | protection against loss of synaptic transmission in CA1 stratum radiatum (EPSP) [6]: very effective | behavioral seizures following HI insults [7]: absence of seizures; also recorded: abolishes | behavioral seizures following HI insults ([7]; listed as Carbenoxolone): stopped | electrographic seizures (EEG epileptiform activity) [7]: loss of electrographic epileptiform activity; also recorded: abolishes | electrographic seizures (EEG epileptiform activity) ([7]; listed as Carbenoxolone): stopped | ischemic pups that died ([7]; treated with carbenoxolone): One of 12 | HI-induced increase of activated caspase-3 in whole brain (caspase-3): largely prevented | HI-induced increase of activated caspase-3 in whole brain (caspase-3; listed as Carbenoxolone): reduced the activation | activation of caspase-3, reduced to (caspase-3; 75 mg/kg i.p. immediately after perinatal HI, 24 hr post-HI, relative to HI alone): 43±15% | caspase-3 band densities (normalized to GAPDH) (caspase-3; HI+Carb, 75 mg/kg i.p., 24 hr post-HI): 302±115 | viability or morphology of control organotypic slice cultures [8]: did not detectably alter | neuroprotection when applied in vitro ([8]; 75 μM): marked neuroprotection | delayed death of CA1 pyramidal neurons assessed by PI staining intensity ([8]; 75 μM added 30 min prior to, during and 60 min after a 45 min HI insult, 24 hr following HI): markedly reduced | PI fluorescence 24 hr post-HI in hippocampal slice culture ([8]; 75 μM, 60 min after the end of the HI episode (FIG. 2c)): reduced PI fluorescence

CCCCCCCCO [octanol]
infarct size (infarcts after stroke): reduced infarct size; also recorded: reduce the size of infarcts
